In patent US20060049177A1, “Induction heating cooker” (LG Electronics Inc., priority 2004, published 2006):
Where two headings read alike, the source gives them in different places.

Legend:
[1] = tested on: HIV-1; assay: in vitro anti-HIV assay: inhibition of HIV-induced cytopathic effect in MT-4 cells (MTT); format: cell-based; settings: for IC50: HIV-infected MT-4 cells, dose achieving 50% protection against cytopathic effect, MTT, OD 540 nm, mean value, read-out: IC50; for SI: selectivity index = ratio of CC50 to IC50
Experimental: (§1) A rapid, sensitive and automated assay procedure was used for the in vitro evaluation of anti-HIV agents. An […] T4-cell line, MT-4, which was previously shown (Koyanagi et al., Int. J. Cancer, 36, 445-451, 1985) to be highly susceptible to and permissive for HIV infection, served as the target cell line. Inhibition of the HIV-induced cytopathic effect was used as the end point. The viability of both HIV- and mock-infected cells was assessed spectrophotometrically via the in situ reduction of 3-(4,5-dimethylthiazol-2-yl)-2,5-diphenyltetrazolium bromide (MTT). The 50% […], cytotoxic concentration (CC50 in μM) was defined as the concentration of compound that reduced the absorbance of the mock-infected control sample by 50%. The percent protection achieved by the compound in HIV-infected cells was calculated by the following formula: [formula]
(§2) whereby (ODT)HIV is the optical density measured with a given concentration of the test compound in HIV-infected cells; (ODC)HIV is the optical density measured for the control untreated HIV-infected cells; (ODC)MOCK is the optical density measured for the control untreated mock-infected cells; all optical density values were determined at 540 nm. The dose achieving 50% protection according to the above formula was defined as the 50% inhibitory concentration (IC50 in μM). The ratio of CC50 to IC50 was defined as the selectivity index (SI).

[2] = cytotoxicity in mock-infected MT-4 cells (MTT); settings: human, mock-infected MT-4 cells
Experimental: as §1, §2

[3] = tested on: MT-4 cells; assay: cytotoxicity in mock-infected MT-4 cells (MTT)
Experimental: as §1, §2

[4] = Human immunodeficiency virus 1, MT4

Row | Compound | melting point [°C] | IC50 [1, 4] [nM] | SI [1] | CC50 [2] [nM] | CC50 [3] [nM] | IC50 [1] [nM]
1 | CC(C)NC(=O)Nc1nc(Cc2c(Cl)cccc2Cl)nc(Nc2ccc(C#N)cc2)n1 [Compound 6, N-[4-[(4-cyano-phenyl)amino]-6-[(2,6-dichlorophenyl)methyl]-1,3,5-triazin-2-yl]-N′-(1-methylethyl)-urea] | 267 to 268 | 380 | >263 |  |  | 
2 | CNc1nc(Cc2c(Cl)cccc2Cl)nc(Nc2ccc(C#N)cc2)n1 [Compound 7, 4-[[4-[(2,6-dichlorophenyl)methyl]-6-(methyl-amino)-1,3,5-triazin-2-yl]amino]benzonitrile] | 229 to 230 | 10 | >14285 | > 100000 |  | 
3 | NC(=O)c1ccc(Nc2nc(N)nc(Cc3c(Cl)ccc4[nH]ccc34)n2)cc1 [Compound 9, 4-[[4-amino-6-[(5-chloro-1H-indol-4-yl)methyl]-1,3,5-triazin-2-yl]amino]benzamide] | 204 to 205 | 66 | 830 |  |  | 
4 | N#Cc1ccc(Nc2nc(Cc3c(Cl)cccc3Cl)nc(Nc3ccc(C#N)cc3)n2)cc1 [Compound 11, N,N′-[6-[(2,6-dichlorophenyl)methyl]1,3,5-triazin-2,4-diyl]bis[4-aminobenzonitrile]] |  |  | <1 |  | 6000 | > 10400
5 | CCN(CC)c1nc(Cc2c(Cl)cccc2Cl)nc(Nc2ccc(C#N)cc2)n1 [Compound 12] |  |  | >2 |  | > 20000 | 8100
6 | COC(=O)CNc1nc(Cc2c(Cl)cccc2Cl)nc(Nc2ccc(C#N)cc2)n1 [Compound 13] |  |  | >178 |  | > 20000 | 110
7 | CCOC(=O)CC[C@H](Nc1nc(Cc2c(Cl)cccc2Cl)nc(Nc2ccc(C#N)cc2)n1)C(=O)OCC [Compound 17] |  |  | >4 |  | > 20000 | 4300
8 | N#Cc1ccc(Nc2nc(Cc3c(Cl)cccc3Cl)nc(NCCO)n2)cc1 [Compound 18] |  |  | >2030 |  | > 20000 | 1
9 | N#Cc1ccc(Nc2nc(Cc3c(Cl)cccc3Cl)nc(NCCN)n2)cc1 [Compound 19] |  |  | 810 |  | 10400 | 13
10 | Cl.N#Cc1ccc(Nc2nc(Cc3c(Cl)cccc3Cl)nc(NO)n2)cc1.O [Compound 21, 4-[[4-[(2,6-dichlorophenyl)methyl]-6-(hydroxyamino)-1,3,5-triazin-2-yl]amino]benzonitrile monohydrochloride.monohydrate] |  |  | 4924 |  | 8900 | 2
11 | N#Cc1ccc(Nc2nc(Cc3c(Cl)cccc3Cl)nc(NCCCCO)n2)cc1 [Compound 24] |  |  | 529 |  | 36100 | 68
12 | N#Cc1ccc(Nc2nc(Cc3c(Cl)cccc3Cl)nc(NCCCO)n2)cc1 [Compound 25] |  |  | 1773 |  | 51600 | 29
13 | N#Cc1ccc(Nc2nc(Cc3c(Cl)cccc3Cl)nc(NCC(O)CO)n2)cc1 (stereo not drawn) [Compound 26, (O)-4-[[4-[(2,6-dichlorophenyl)methyl]-6-[(2,3-dihydroxypropyl)amino]-1,3,5-triazin-2-yl]amino]benzonitrile] |  |  | 883 |  | 59700 | 68
14 | N#Cc1ccc(Nc2nc(Cc3c(Cl)cccc3Cl)nc(NCCOCCO)n2)cc1 [Compound 27] |  |  | 837 |  | 46800 | 56
15 | CN(C)CCNc1nc(Cc2c(Cl)cccc2Cl)nc(Nc2ccc(C#N)cc2)n1 [Compound 29] |  |  | 1741 |  | 8700 | 5
16 | N#Cc1ccc(Nc2nc(Cc3c(Cl)cccc3Cl)nc(NCCCN)n2)cc1 [Compound 30] |  |  | 416 |  | 16500 | 40
17 | CN(C)CCCNc1nc(Cc2c(Cl)cccc2Cl)nc(Nc2ccc(C#N)cc2)n1 [Compound 31] |  |  | 506 |  | 9600 | 19
18 | N#Cc1ccc(Nc2nc(Cc3c(Cl)cccc3Cl)nc(NC3CCOC3=O)n2)cc1 (stereo not drawn) [Compound 32] |  |  | 42 |  | 83400 | 2000
19 | N#Cc1ccc(Nc2nc(Cc3c(Cl)cccc3Cl)nc(NCCc3cccs3)n2)cc1 [Compound 35] |  |  | 75 |  | 53000 | 700
20 | CONc1nc(Cc2c(Cl)cccc2Cl)nc(Nc2ccc(C#N)cc2)n1 [Compound 36] |  |  | 8097 |  | 40900 | 5

Row | Compound | melting point [°C] | IC50 [1, 4] [nM] | SI [1] | CC50 [2] [nM] | CC50 [3] [nM] | IC50 [1] [nM]
21 | CCOC(=O)Nc1nc(Cc2c(Cl)cccc2Cl)nc(Nc2ccc(C#N)cc2)n1 [Compound 37] |  |  | 7948 |  | 85000 | 11
22 | CC(=O)Nc1nc(Cc2c(Cl)cccc2Cl)nc(N(C(C)=O)c2ccc(C#N)cc2)n1 [Compound 40] |  |  | >41666 |  | > 100000 | 2
23 | CCOC(=O)N(C(=O)OCC)c1nc(Cc2c(Cl)cccc2Cl)nc(N(C(=O)OCC)c2ccc(C#N)cc2)n1 [Compound 41] |  |  | 3125 |  | 40200 | 13
24 | N#Cc1ccc(Nc2nc(N)nc(Cc3c(Cl)ccc(Cl)c3Cl)n2)cc1 [Compound 44] |  |  | >35087 |  | > 100000 | 3
25 | N#Cc1ccc(Nc2nc(N)nc(Cc3cccc(OC(F)(F)F)c3)n2)cc1 [Compound 45] |  |  | >233 |  | > 100000 | 430
26 | COc1ccc(OC)c(Cc2nc(N)nc(Nc3ccc(C#N)cc3)n2)c1 [Compound 46] |  |  | >2506 |  | > 100000 | 40
27 | Cc1ccc(C)c(Cc2nc(N)nc(Nc3ccc(C#N)cc3)n2)c1 [Compound 49] |  |  | >220 |  | > 20000 | 91
28 | COc1cccc(Cc2nc(N)nc(Nc3ccc(C#N)cc3)n2)c1OC [Compound 50] |  |  | >252 |  | > 20000 | 79
29 | N#Cc1ccc(Nc2nc(N)nc(Cc3cc(F)ccc3F)n2)cc1 [Compound 51] |  |  | >640 |  | > 20000 | 31
30 | COc1cc(Cc2nc(N)nc(Nc3ccc(C#N)cc3)n2)cc(OC)c1 [Compound 53] |  |  | >48 |  | > 20000 | 410
31 | Cc1cc(C)c(C)c(Cc2nc(N)nc(Nc3ccc(C#N)cc3)n2)c1C [Compound 54] |  |  | 9515 |  | 43800 | 5
32 | COc1ccc(Br)cc1Cc1nc(N)nc(Nc2ccc(C#N)cc2)n1 [Compound 55] |  |  | >384 |  | > 20000 | 52
33 | N#Cc1ccc(Nc2nc(N)nc(Cc3cc(C(F)(F)F)ccc3C(F)(F)F)n2)cc1 [Compound 56] |  |  |  |  | > 100000 | > 74400
34 | Cc1ccc(C)c(Cc2nc(N)nc(Nc3ccc(C#N)cc3)n2)c1 [Compound 57] |  |  | 11883 |  | 36800 | 3
35 | N#Cc1ccc(Nc2nc(N)nc(Cc3c(F)cccc3C(F)(F)F)n2)cc1 [Compound 58] |  |  | 1418 |  | 20000 | 14
36 | N#Cc1ccc(Nc2nc(N)nc(Cc3cc(F)cc(F)c3)n2)cc1 [Compound 59] |  |  | >241 |  | > 100000 | 420
37 | COc1ccc(C(C)=O)cc1Cc1nc(N)nc(Nc2ccc(C#N)cc2)n1 [Compound 60] |  |  | 1841 |  | 71400 | 39
38 | CCO.Cl.N#Cc1ccc(Nc2nc(N)nc(C(CC3CC3)c3c(Cl)cccc3Cl)n2)cc1 (stereo not drawn) [Compound 61] |  |  | 7 |  | 53400 | 6900
39 | (±)-2-[[4-[(4-cyanophenyl)amino]-6-[(2,6-dichlorophenyl)amino]-6-[(2,6-dichloro-phenyl)methyl]-1,3,5-triazin-2-yl]amino-4-hydroxybutanamide [Compound 34] |  |  | 746 |  | 42300 | 57
